Columns and labels:
Mushroom Tyrosinase [1] = assay: Mushroom Tyrosinase Inhibition Test (Dopa base); assay type: biochemical; conditions: Dopa base (L-Dopa 1 mg/mL, pH 6.5); sample solution 2% in water, 100 μL in 900 μL substrate; 3 min, 475 nm
Description: Mushroom Tyrosinase Inhibition Test (Dopa Base):
Preparation: L-Dopa (L-3,4-dihydroxyphenylalanine; 1 mg/mL) was dissolved in pH 6.5 buffer solution. Samples were dissolved in water and prepared the concentration at 2%.
Method: 900 μL of L-Dopa solution was added into 100 μL of sample solution (or blank solution) and measured by thermo spectronic 475 nm (Aso or Ab0). 15 μL of mushroom […] buffer solution was added into mixture. After reaction for 3 min, mixture was measured by thermo spectronic (As3 or Ab3) (FIG. 1).

Mushroom Tyrosinase [2] = assay: Mushroom Tyrosinase Inhibition Test (Tyrosine base); assay type: biochemical; conditions: Tyrosine base (Tyrosine 5 mg/mL, pH 6.5); sample solution 2% in water, 100 μL in 900 μL substrate; 60 minutes, 492 nm
Description: Mushroom Tyrosinase Inhibition Test (Tyrosine Base): Preparation: Tyrosine (5 mg/mL) were dissolved in pH 6.5 buffer solution. Samples were dissolved in water and prepared the concentration at 2%. Method: 900 μL of Tyrosine solution was added into 100 μL of sample solution (or blank solution) and measured by thermo spectronic 492 nm (Aso or Ab0). 40 μL of mushroom tyrosinase buffer solution was added into mixture. After reaction for 60 minutes, the mixture was measured by thermo spectronic (As60 or Ab60) (FIG. 2). Calculation: [formula]

Water Solubility = assay type: physicochemical; conditions: in water

SMILES | Mushroom Tyrosinase Inhibition (Mushroom Tyrosinase [1]) [%] | Mushroom Tyrosinase Inhibition (Mushroom Tyrosinase [2]) [%] | Water Solubility (Water Solubility) [%]
CN(C)CCNC(=O)CCCCCCCC(=O)O [(I), 8-(2-Dimethylamino-ethylcarbamoyl)-octanoic acid] | 74.3 | 82.9 | –
CC(C)N(CCNC(=O)CCCCCCCC(=O)O)C(C)C [(II), 8-(2-Diisopropylamino-ethylcarbamoyl)-octanoic acid] | 45.7 | 77.2 | 22
CN(C)CCCNC(=O)CCCCCCCC(=O)O [(III), 8-(3-Dimethylamino-propylcarbamoyl)-octanoic acid] | 56.3 | 78.4 | 33
CN(C)CCNC(=O)CCCCCCCCC(=O)O [(IV), 9-(2-Dimethylamino-ethylcarbamoyl)-nonanoic acid] | 50.6 | 84.1 | 17
CN(C)CCCNC(=O)CCCCCCCCC(=O)O [(V), 9-(3-Dimethylamino-propylcarbamoyl) nonanoic acid] | 60.0 | 99.3 | 29
O=C(O)CCCCCCCC(=O)O [Azelaic acid, reference compound] | – | – | <0.5

— patent US8053474B2, “Compound with carboxyl acid group and amide group and application thereof” (Corum Inc., priority 2009, dated 2011)
